In US8268853B2, “3,9-diazaspiro[5,5]undecane amides and ureas and methods of use thereof” (Abbott Laboratories, priority 2009, dated 2012) one finds Ki and EC50 data, which are given here for nine molecules.

A value given as a limit tells only on which side of the number the result lay.

The target of assay [1] is T1, hERG cardiac potassium channel (Homo sapiens, UniProt Q12809).
T1 construct: expressed in transfected cells; host or cells: HEK-293 cells (membrane homogenate)
Kind of assay: [3H]dofetilide/HEK-293 membrane competition binding assay. As to conditions: displacement of [3H]dofetilide, HEK-293 membrane homogenates expressing hERG; Ki from IC50 by Cheng-Prusoff. The text has this: Drugs that block the cardiac potassium channel encoded by the human ether-a-go-go gene (hERG) have been associated clinically with QT interval prolongation, proarrhythmia, and in some rare cases, sudden cardiac death. The identification of drugs that block hERG has become a critical component of the safety profile. The [^3H]dofetilide/HEK-293 membrane competition binding assay described below permits the ranking of compounds for their potential to block the hERG potassium channel.
[^3H]dofetilide/HEK-293 Membrane Competition Binding Assay
The binding affinity of test drugs for the hERG cardiac potassium channel was determined by their ability to displace tritiated dofetilide (a class III antiarrhythmic drug and potent hERG blocker) in membrane homogenates from HEK-293 cells heterogously expressing the hERG channel. The assay was performed as previously described (Diaz, G.; Daniell, K.; Leitza, S. T.; Martin, R. L.; Su, Z.; McDermott, J. S.; Cox, B. F.; Gintant, G. A. The [^3H]dofetilide binding assay is a predictive screening tool for hERG blockade and proarrhythmia: Comparison of intact cell and membrane preparations and effects of altering [K^+]O. Journal of Pharmacological and Toxicological Methods 2004, 50, 187-199.). Briefly, drug dilutions were prepared from 10 mM dimethyl sulfoxide stocks and the following were added to a 96-well polystyrene plate (Perkin-Elmer Optiplate): 20 μL of assay binding buffer (for total bounds), or 1 μM astemizole (for non-specific bounds), or test drug, 50 μL of [^3H]dofetilide (20 nM, ˜80 Ci/mmol specific activity), and 130 μL of membrane homogenate (final protein concentration of 30 μg per well). The plates were incubated at ambient temperature for 45 minutes, aspirated onto GF/B filter plates (Perkin-Elmer), and washed with 2 mL of cold wash buffer. After allowing the plates to dry, 50 μL of scintillant (Perkin-Elmer MicroScint 20) were added to each well and the radioactivity was counted in a Perkin-Elmer Topcount NXT scintillation counter. IC50 determinations were calculated from competition curves using 6 drug concentrations, half-log apart, starting at a high concentration of 100 μM (final assay dimethyl sulfoxide concentration=1%) using a four-parameter logistic equation. Ki values were derived from the calculated IC50 values by using the Cheng and Prusoff (Cheng, Y.; Prusoff, W. H. Relationship between the inhibition constant (KI) and the concentration of inhibitor which causes 50 percent inhibition (I50) of an enzymatic reaction. Biochemical Pharmacology 1973, 22(23), 3099-3108) equation (Ki=IC50/1+[ligand]/Kd) using Kd values for [^3H]dofetilide obtained from saturation assays previously described (Diaz et al., 2004).
In general terms: Loss of bound radioactivity is the signal in a displacement assay; it reports binding, not function.

In another assay the target is T2, human α4β2 NNR (Homo sapiens, UniProt P17787+P43681).
T2 construct: expressed in transfected cells
T2 sequence (P43681 29-627 limits assumed): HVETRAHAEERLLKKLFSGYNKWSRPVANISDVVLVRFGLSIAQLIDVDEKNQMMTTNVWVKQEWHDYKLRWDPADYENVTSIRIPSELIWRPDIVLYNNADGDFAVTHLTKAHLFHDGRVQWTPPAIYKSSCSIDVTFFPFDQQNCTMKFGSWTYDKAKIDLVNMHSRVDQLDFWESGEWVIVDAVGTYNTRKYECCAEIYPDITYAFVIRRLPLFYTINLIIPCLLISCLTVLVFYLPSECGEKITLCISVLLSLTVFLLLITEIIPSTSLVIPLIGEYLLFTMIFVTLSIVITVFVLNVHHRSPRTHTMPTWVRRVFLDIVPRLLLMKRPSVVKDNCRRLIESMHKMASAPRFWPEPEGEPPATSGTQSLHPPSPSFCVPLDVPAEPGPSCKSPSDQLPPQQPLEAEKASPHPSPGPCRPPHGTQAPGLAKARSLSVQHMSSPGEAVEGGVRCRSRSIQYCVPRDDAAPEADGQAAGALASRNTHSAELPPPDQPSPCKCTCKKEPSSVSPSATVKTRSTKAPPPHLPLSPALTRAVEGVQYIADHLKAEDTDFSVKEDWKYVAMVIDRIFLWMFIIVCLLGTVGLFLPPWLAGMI
T2 sequence (P17787 26-502): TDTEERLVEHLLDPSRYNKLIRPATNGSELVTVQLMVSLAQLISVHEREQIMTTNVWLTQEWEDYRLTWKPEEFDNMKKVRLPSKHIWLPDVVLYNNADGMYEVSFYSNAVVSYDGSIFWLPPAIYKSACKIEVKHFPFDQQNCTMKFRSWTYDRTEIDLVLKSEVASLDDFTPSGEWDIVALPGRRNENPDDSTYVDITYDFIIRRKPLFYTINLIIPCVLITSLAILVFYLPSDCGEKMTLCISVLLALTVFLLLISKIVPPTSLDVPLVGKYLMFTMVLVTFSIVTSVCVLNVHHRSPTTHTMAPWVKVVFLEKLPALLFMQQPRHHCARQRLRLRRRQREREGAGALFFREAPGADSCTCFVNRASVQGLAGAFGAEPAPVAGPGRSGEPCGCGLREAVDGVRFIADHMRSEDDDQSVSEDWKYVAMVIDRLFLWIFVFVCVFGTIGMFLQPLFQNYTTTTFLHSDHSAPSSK
Kind of assay: Calcium flux assay (FLIPR), potentiation of submaximal nicotine response in HEK 293 cells expressing α4β2. It is filed as cell-based. The following applies: HEK 293 cells expressing human α4β2; potentiation of submaximal (EC20-30%) agonist such as nicotine; read-out: EC50 (α4β2 PAM). The text has this:
One manner to characterize α4β2 PAM activity is by characterization in clonal cell lines (for example, human embryonic kidney 293 cells) expressing the human neuronal nicotinic acetylcholine receptor subtype α4β2, particularly by use of Fluorescent Image Plate Reader technology. Effects on calcium flux or membrane potential changes can be assessed. Such assays have been reported and further details for carrying out the assays can be obtained in International Publication No. WO 2006/114400. Another method to identify and characterize allosteric modulator activity is by expressing the α4β2 subunits in Xenopus oocytes, and by measuring electrophysiological effects on ligand-evoked current responses as previously described in Curtis, L., et al., Molecular Pharmacology, 61: 127-135, 2002.
To determine the effectiveness of representative compounds of this invention as ligands for α4β2 PAM activity, the compounds of the invention can be evaluated according to the Calcium Flux Assay described below.
Calcium Flux Assays using Cells Expressing NNR Subtypes
Human embryonic kidney (HEK) 293 cells stably expressing human α4β2 or α3β4 combinations are grown to confluency in 162 cm^2 tissue culture flasks in DMEM media supplemented with 10% FBS and 25 μg/mL zeocin and 200 μg/mL hygromycin B. Cells expressing rat or ferret subunits may also be used. For assessing α3* or α7* selectivity, IMR-32 cells may also be used. IMR-32 neuroblastoma cells (ATCC) are grown to confluency in 162 cm^2 tissue culture flasks in minimum essential media supplemented with 10% FBS and 1 mM sodium pyruvate, 1% non-essential amino acids and 1% antibiotic-antimycotic. For the calcium flux assay, the cells are then dissociated using cell dissociation buffer and 100-150 μL per well of 3.5×10^5 cells/mL cell suspension (˜50,000-100,000 cells/well) was plated into 96-well black plates (poly-D-lysine precoated) with clear bottom and maintained for 24-48 hours in a tissue culture incubator at 37° C. under an atmosphere of 5% CO2: 95% air. Other clonal cell lines or primary cell cultures that express endogenous α4* nicotinic receptors may also be used in this assay. Calcium flux was measured using calcium-3 assay kit (Molecular Devices, Sunnyvale, Calif.) or fluo-4 (Invitrogen). A stock solution of the dye was prepared by dissolving each vial supplied by the vendor in Hank's balanced salt solution buffer (HBSS) or 150 mM NMDG, 20 mM calcium chloride containing 10 mM HEPES. The stock solution was diluted 1:20 using the same buffer before use. The growth media was removed from the cells. The cells were loaded with 100 μL of the dye per well and incubated at room temperature for up to one hour for HEK 293 clonal stable cell lines or 30 minutes-45 minutes at 37° C. for IMR-32 cells. Fluorescence measurements were read simultaneously from all the wells by a Fluorometic Imaging Plate Reader (FLIPR) at an excitation wavelength of 480 nm and an emission wavelength of 520 nm. Baseline fluorescence was measured for the first 6 seconds at which 3× concentrations of modulator/test compounds were added to the cell plate at 50 μL and incubated for five minutes. The fluorescence intensity was captured every second for the first 1 minute followed by every 5 seconds for an additional 4 minutes. This procedure was followed by 50 μL of 4× concentration of agonist and readings were taken for a period of 3-5 minutes as described above.
The ability of test compounds to positively modulate the response (i.e., increase the response) induced by a submaximal concentration of agonist (EC20-30%) such as nicotine is measured. Potentiation is measured based on peak fluorescence responses by screening compounds at fixed concentrations or in a concentration-response manner to derive EC50 values. The concentration dependence of changes in fluorescence responses is fitted by nonlinear regression analysis (GraphPad Prism, San Diego, Calif.) to obtain EC50 values. […]
For orientation: Calcium assays in cells follow changes in intracellular calcium, usually with a dye or a luminescent sensor.

A word on the Ki: it is a dissociation constant, usually derived from enzyme kinetics or from competition with a known ligand. Low values mean tighter binding, high ones weaker binding. A word on the EC50: it is the concentration at which the effect is half-maximal.

T1 sequence (Q12809 whole entry): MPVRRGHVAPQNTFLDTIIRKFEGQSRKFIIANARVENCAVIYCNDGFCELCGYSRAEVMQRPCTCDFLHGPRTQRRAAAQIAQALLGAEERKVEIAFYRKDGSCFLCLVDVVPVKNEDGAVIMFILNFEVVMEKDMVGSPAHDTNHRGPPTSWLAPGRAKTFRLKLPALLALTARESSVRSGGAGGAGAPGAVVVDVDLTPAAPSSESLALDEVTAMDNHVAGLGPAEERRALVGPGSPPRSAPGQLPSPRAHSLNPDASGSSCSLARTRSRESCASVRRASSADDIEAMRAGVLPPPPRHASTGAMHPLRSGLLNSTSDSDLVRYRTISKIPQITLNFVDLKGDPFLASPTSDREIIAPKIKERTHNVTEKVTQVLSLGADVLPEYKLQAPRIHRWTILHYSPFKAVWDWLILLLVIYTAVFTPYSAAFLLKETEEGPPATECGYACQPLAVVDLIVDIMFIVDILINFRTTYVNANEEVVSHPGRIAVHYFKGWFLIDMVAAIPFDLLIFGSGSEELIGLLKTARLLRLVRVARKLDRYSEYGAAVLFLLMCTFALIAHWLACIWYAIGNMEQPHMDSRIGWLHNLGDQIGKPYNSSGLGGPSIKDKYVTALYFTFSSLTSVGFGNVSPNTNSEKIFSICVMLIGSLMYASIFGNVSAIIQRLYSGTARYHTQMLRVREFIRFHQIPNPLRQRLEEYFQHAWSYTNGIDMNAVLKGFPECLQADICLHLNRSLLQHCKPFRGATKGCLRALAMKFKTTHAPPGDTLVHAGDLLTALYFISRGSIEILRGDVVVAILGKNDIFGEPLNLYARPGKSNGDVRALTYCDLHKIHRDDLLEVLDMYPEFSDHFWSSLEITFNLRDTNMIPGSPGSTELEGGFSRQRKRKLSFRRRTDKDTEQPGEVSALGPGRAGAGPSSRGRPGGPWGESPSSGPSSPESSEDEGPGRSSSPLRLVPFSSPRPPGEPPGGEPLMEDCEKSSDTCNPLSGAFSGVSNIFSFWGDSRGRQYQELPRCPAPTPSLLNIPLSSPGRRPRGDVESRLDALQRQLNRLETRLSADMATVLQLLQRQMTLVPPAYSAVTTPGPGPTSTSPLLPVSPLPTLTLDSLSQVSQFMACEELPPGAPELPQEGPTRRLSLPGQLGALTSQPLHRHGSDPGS

The molecule `COc1cc(C(=O)N2CCC3(CCN(C)CC3)CC2)ccc1F` [Example 2, 3-(4-fluoro-3-methoxybenzoyl)-9-methyl-3,9-diazaspiro[5.5]undecane] had an inhibitory constant (Ki) in assay [1] above 53 µM. Moreover, the EC50 at human α4β2 NNR was determined as 0.97 µM. In the same order, the values of `COc1cc(C(=O)N2CCC3(CCN(C)CC3)CC2)cc(Cl)c1OC` [Example 6, 3-(3-chloro-4,5-dimethoxybenzoyl)-9-methyl-3,9-diazaspiro[5.5]undecane] are above 54 µM and 0.36 µM. In the same order, the values of `COc1ccc(NC(=O)N2CCC3(CCN(C)CC3)CC2)cc1F` [Example 7, N-(3-fluoro-4-methoxyphenyl)-9-methyl-3,9-diazaspiro[5.5]undecane-3-carboxamide] are 8.5 µM and 1.62 µM. On to `COc1ccc(NC(=O)N2CCC3(CCN(C)CC3)CC2)cc1Cl` [Example 8, N-(3-chloro-4-methoxyphenyl)-9-methyl-3,9-diazaspiro[5.5]undecane-3-carboxamide], for which the EC50 at human α4β2 NNR was 0.61 µM. As to `COc1ccc(CC(=O)N2CCC3(CCN(C)CC3)CC2)cc1F` [Example 10, 3-[(3-fluoro-4-methoxyphenyl)acetyl]-9-methyl-3,9-diazaspiro[5.5]undecane], the concentration for a half-maximal effect (EC50) on human α4β2 NNR came to 1.69 µM.

Consider `COc1ccc(C(=O)N2CCC3(CCN(C)CC3)CC2)cc1F` [Example 3, 3-(3-fluoro-4-methoxybenzoyl)-9-methyl-3,9-diazaspiro[5.5]undecane], for which the inhibition constant Ki in assay [1] stood at 13 µM. For the same molecule, the EC50 at human α4β2 NNR is 4.3 µM.

On to `COc1c(Cl)cc(C(=O)N2CCC3(CCN(C)CC3)CC2)cc1Cl` [Example 5, 3-(3,5-dichloro-4-methoxybenzoyl)-9-methyl-3,9-diazaspiro[5.5]undecane], for which affinity in assay [1] was put at a Ki of 19 µM. In addition, at human α4β2 NNR, the EC50 was 0.04 µM. For `COc1cc(OC)c(NC(=O)N2CCC3(CCN(C)CC3)CC2)cc1Cl` [Example 9, N-(5-chloro-2,4-dimethoxyphenyl)-9-methyl-3,9-diazaspiro[5.5]undecane-3-carboxamide], the 50% effective concentration (EC50) at human α4β2 NNR is 3.74 µM. `COc1ccc(C(=O)N2CCC3(CCN(C)CC3)CC2)cc1Cl` [Example 4, 3-(3-chloro-4-methoxybenzoyl)-9-methyl-3,9-diazaspiro[5.5]undecane] had a Ki in assay [1] of 16 µM. Further, on human α4β2 NNR, the EC50 is 0.16 µM.
